Literature values in PMC9248236 (Nature chemical biology, 2022).

Tested on: IR
Conditions: competition binding assays, substitution at B24 of insulin

Substance | affinity for IR lower than native PheB24 human insulin
IleB24: human insulin analog with PheB24 substituted by isoleucine (literature) | 2–3 fold
LeuB24: human insulin analog with PheB24 substituted by leucine (literature) | 2–3 fold
